# Source: patent publication US20090143361A1, “Pyrido[3,2-E]Pyrazines, Process For Preparing The Same, And Their Use As Inhibitors Of Phosphodiesterase 10” (ELBION GMBH, priority 2007, published 2009)
# Target: T1, human recombinant PDE10A (Homo sapiens, UniProt Q9Y233)
# T1 construct: made in house; host or cells: SF21 insect cells (baculovirus)
# Test: Inhibition of PDE10, human recombinant PDE10A ([3H]-cAMP SPA)
# Type: biochemical
# Conditions: Table 7; read-out: Human PDE10 (IC50 nM)
# Method: The gene was than inserted into a baculovirus vector, ligated with the baculovirus DNA. The enzyme-protein was expressed in SF21-cells. The enzyme was isolated from these cells by harvesting the cells by a centrifugation at 200 g to collect the cells. The cells were resuspended in 50 mM Tris-HCl/5 mM MgCl2 buffer (pH=7.4) and lysed by a sonication of the cells. The cytosolic PDE10A was obtained by a centrifugation at 48000 g for 1 h in the supernatant and stored at −70° C. PDE10 activity was determined in a one step procedure in microtiterplates. […] Nonspecific activity was tested without the enzyme. The reaction was initiated by addition of the substrate solution and was carried out at 37° C. for 30 minutes. Enzymatic activity was stopped by addition of 25 μl YSi-SPA-beads (Amersham-Pharmacia). One hour later the mixture was measured in a liquid scintillation counter for microtiterplates (Microbeta Trilux). To pipette the incubation mixture a robot Biomek (Fa. Beckman) is used. […] For determination of IC50 values the Hill-plot, 2-parameter-model, was used.
# T1 sequence (Q9Y233 1-779 isoform Q9Y233-1): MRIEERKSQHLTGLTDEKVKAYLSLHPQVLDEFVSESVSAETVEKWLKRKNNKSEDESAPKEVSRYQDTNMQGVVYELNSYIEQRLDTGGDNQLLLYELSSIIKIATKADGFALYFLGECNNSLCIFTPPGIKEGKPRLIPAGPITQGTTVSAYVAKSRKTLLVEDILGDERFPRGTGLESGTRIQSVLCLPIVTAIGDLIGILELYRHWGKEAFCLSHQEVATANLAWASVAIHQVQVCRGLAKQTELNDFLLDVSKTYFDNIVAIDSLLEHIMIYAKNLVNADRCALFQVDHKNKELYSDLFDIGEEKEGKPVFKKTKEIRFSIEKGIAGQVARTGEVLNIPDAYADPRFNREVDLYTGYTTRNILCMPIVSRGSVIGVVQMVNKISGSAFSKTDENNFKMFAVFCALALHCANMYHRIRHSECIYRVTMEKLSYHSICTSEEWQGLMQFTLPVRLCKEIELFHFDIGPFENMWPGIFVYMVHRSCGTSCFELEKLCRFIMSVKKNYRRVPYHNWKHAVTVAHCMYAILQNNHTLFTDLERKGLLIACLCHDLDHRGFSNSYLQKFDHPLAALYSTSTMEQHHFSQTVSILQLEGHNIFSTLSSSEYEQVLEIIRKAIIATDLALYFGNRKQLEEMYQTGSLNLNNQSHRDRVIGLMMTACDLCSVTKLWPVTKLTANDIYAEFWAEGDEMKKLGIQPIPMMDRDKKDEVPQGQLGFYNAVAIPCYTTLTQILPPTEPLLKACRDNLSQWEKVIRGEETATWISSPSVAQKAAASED
row,IC50,Compound
1,10 to 100 nM,"COc1ccc2nc(C)c3c(C)nc(-c4ccc(Cl)cc4F)n3c2n1 [Example 17, 9-(4-Chloro-2-fluorophenyl)-2-methoxy-6,7-dimethylimidazo[1,5-a]pyrido[3,2-e]pyrazine]"
2,10 to 100 nM,"COc1ccc2nc(C)c3c(C)nc(-c4cnc(F)c(C)c4)n3c2n1 [Example 33, 9-(6-Fluoro-5-methylpyridin-3-yl)-2-methoxy-6,7-dimethylimidazo[1,5-a]pyrido[3,2-e]pyrazine]"
3,> 100 nM,"COc1ccc2nc(C)c3c(C(F)(F)F)nc(-c4cnccc4OC)n3c2n1 [Example 34, 2-Methoxy-9-(4-methoxypyridin-3-yl)-6-methyl-7-(trifluoromethyl)imidazo[1,5-a]pyrido[3,2-e]pyrazine]"
4,10 to 100 nM,"COc1ccc2nc(C)c3c(C(F)(F)F)nc(-c4cc(C(N)=O)ccc4F)n3c2n1 [Example 36, 4-Fluoro-3-[2-methoxy-6-methyl-7-(trifluoromethyl)imidazo[1,5-a]pyrido[3,2-e]pyrazin-9-yl]benzamide]"
5,10 to 100 nM,"COc1ccc2nc(N)c3c(C(F)(F)F)nc(-c4ccccc4C)n3c2n1 [Example 38, 2-Methoxy-9-(2-methylphenyl)-7-(trifluoromethyl)imidazo[1,5-a]pyrido[3,2-e]pyrazin-6-amine]"
6,< 10 nM,"COc1ccc2nc(NS(C)(=O)=O)c3c(C(F)(F)F)nc(-c4ccccc4C)n3c2n1 [Example 39, N-[2-Methoxy-9-(2-methylphenyl)-7-(trifluoromethyl)imidazo[1,5-a]pyrido[3,2-e]pyrazin-6-yl]methanesulfonamide]"
7,10 to 100 nM,"COc1ccc2nc(C#N)c3c(C)nc(-c4cc(Cl)ccc4Cl)n3c2n1 [Example 40, 9-(2,5-Dichlorophenyl)-2-methoxy-7-methylimidazo[1,5-a]pyrido[3,2-e]pyrazine-6-carbonitrile]"

# Same assay, conditions: Table 8, cell marked Human PDE10; read-out: IC50 (nM) (Human PDE10)
row,IC50,Compound
1,> 100 nM,"CCCc1nc(C)c2c(C)nc3ccc(=O)[nH]c3n12 [Example 46, 6,7-Dimethyl-9-propylimidazo[1,5-a]pyrido[3,2-e]pyrazin-2(1H)-one]"

# Same assay, conditions: Table 9; read-out: hPDE10 IC50
row,IC50,Compound
1,< 10 nM,"Cc1ccccc1-c1nc(C)c2c(C)nc3ccc(OCC4CC4)nc3n12 [Example 123, 2-(cyclopropylmethoxy)-6,7-dimethyl-9-(2-methylphenyl)imidazo[1,5-a]pyrido[3,2-e]pyrazine]"
2,< 10 nM,"COc1ccc2nc(C)c3c(C)nc(-c4cc(F)cc(C(N)=O)c4)n3c2n1 [Example 129, 3-fluoro-5-(2-methoxy-6,7-dimethylimidazo[1,5-a]pyrido[3,2-e]pyrazin-9-yl)benzamide]"
3,< 10 nM,"COc1ccc2nc(C)c3c(C)nc(-c4ccc(F)c(C(N)=O)c4)n3c2n1 [Example 130, 2-fluoro-5-(2-methoxy-6,7-dimethylimidazo[1,5-a]pyrido[3,2-e]pyrazin-9-yl)benzamide]"
4,10 to 100 nM,"COc1ccc2nc(C)c3c(C)nc(-c4ccc(Cl)c(C(N)=O)c4)n3c2n1 [Example 131, 2-chloro-5-(2-methoxy-6,7-dimethylimidazo[1,5-a]pyrido[3,2-e]pyrazin-9-yl)benzamide]"
5,< 10 nM,"COc1ccc2nc(C)c3c(C)nc(-c4ccc(C(N)=O)c(Cl)c4)n3c2n1 [Example 132, 2-chloro-4-(2-methoxy-6,7-dimethylimidazo[1,5-a]pyrido[3,2-e]pyrazin-9-yl)benzamide]"
6,> 100 nM,"COc1ccc2nc(C)c3c(C)nc(CC#N)n3c2n1 [Example 133, (2-Methoxy-6,7-dimethylimidazo[1,5-a]pyrido[3,2-e]pyrazin-9-yl)acetonitrile]"
7,10 to 100 nM,"Cc1ccc(Cl)cc1-c1nc(C)c2c(C)nc3ccc(OCC4CC4)nc3n12 [Example 134, 9-(5-chloro-2-methylphenyl)-2-(cyclopropylmethoxy)-6,7-dimethylimidazo[1,5-a]pyrido[3,2-e]pyrazine]"
8,10 to 100 nM,"Cc1cc(F)ccc1-c1nc(C)c2c(C)nc3ccc(OCC4CC4)nc3n12 [Example 135, 2-(cyclopropylmethoxy)-9-(4-fluoro-2-methylphenyl)-6,7-dimethylimidazo[1,5-a]pyrido[3,2-e]pyrazine]"
9,< 10 nM,"Cc1c(F)cccc1-c1nc(C)c2c(C)nc3ccc(OCC4CC4)nc3n12 [Example 136, 2-(cyclopropylmethoxy)-9-(3-fluoro-2-methylphenyl)-6,7-dimethylimidazo[1,5-a]pyrido[3,2-e]pyrazine]"
10,10 to 100 nM,"Cc1nc(-c2ccc(Cl)cc2C(F)(F)F)n2c1c(C)nc1ccc(OCC3CC3)nc12 [Example 137, 9-[4-chloro-2-(trifluoromethyl)phenyl]-2-(cyclopropylmethoxy)-6,7-dimethylimidazo[1,5-a]pyrido[3,2-e]pyrazine]"
11,< 10 nM,"Cc1nc(-c2ccc(F)cc2Cl)n2c1c(C)nc1ccc(OCC3CC3)nc12 [Example 138, 9-(2-chloro-4-fluorophenyl)-2-(cyclopropylmethoxy)-6,7-dimethylimidazo[1,5-a]pyrido[3,2-e]pyrazine]"
12,> 100 nM,"COc1ccc(-c2nc(C)c3c(C)nc4ccc(OCC5CC5)nc4n23)cn1 [Example 139, 2-(cyclopropylmethoxy)-9-(6-methoxypyridin-3-yl)-6,7-dimethylimidazo[1,5-a]pyrido[3,2-e]pyrazine]"
13,10 to 100 nM,"Cc1ccncc1-c1nc(C)c2c(C)nc3ccc(OCC4CC4)nc3n12 [Example 140, 2-(cyclopropylmethoxy)-6,7-dimethyl-9-(4-methylpyridin-3-yl)imidazo[1,5-a]pyrido[3,2-e]pyrazine]"
14,< 10 nM,"Cc1nc(F)ccc1-c1nc(C)c2c(C)nc3ccc(OCC4CC4)nc3n12 [Example 141, 2-(cyclopropylmethoxy)-9-(6-fluoro-2-methylpyridin-3-yl)-6,7-dimethylimidazo[1,5-a]pyrido[3,2-e]pyrazine]"
15,< 10 nM,"Cc1nc(-c2ccc(C(N)=O)cc2)n2c1c(C)nc1ccc(OCC3CC3)nc12 [Example 142, 4-[2-(cyclopropylmethoxy)-6,7-dimethylimidazo[1,5-a]pyrido[3,2-e]pyrazin-9-yl]benzamide]"
16,< 10 nM,"Cc1nc(-c2cccc(C(N)=O)c2)n2c1c(C)nc1ccc(OCC3CC3)nc12 [Example 143, 3-[2-(cyclopropylmethoxy)-6,7-dimethylimidazo[1,5-a]pyrido[3,2-e]pyrazin-9-yl]benzamide]"
17,< 10 nM,"Cc1nc(-c2ccc(F)c(C(N)=O)c2)n2c1c(C)nc1ccc(OCC3CC3)nc12 [Example 144, 5-(2-(cyclopropylmethoxy)-6,7-dimethylimidazo[1,5-a]pyrido[3,2-e]pyrazin-9-yl)-2-fluorobenzamide]"
18,< 10 nM,"Cc1nc(-c2cc(F)cc(C(N)=O)c2)n2c1c(C)nc1ccc(OCC3CC3)nc12 [Example 145, 3-[2-(cyclopropylmethoxy)-6,7-dimethylimidazo[1,5-a]pyrido[3,2-e]pyrazin-9-yl]-5-fluorobenzamide]"
19,> 100 nM,"Cc1ccc(C(=O)O)cc1-c1nc(C)c2c(C)nc3ccc(OCC4CC4)nc3n12 [Example 146, 3-[2-(cyclopropylmethoxy)-6,7-dimethylimidazo[1,5-a]pyrido[3,2-e]pyrazin-9-yl]-4-methylbenzoic acid]"
20,> 100 nM,"Cc1cc(C(=O)O)ccc1-c1nc(C)c2c(C)nc3ccc(OCC4CC4)nc3n12 [Example 147, 4-[2-(cyclopropylmethoxy)-6,7-dimethylimidazo[1,5-a]pyrido[3,2-e]pyrazin-9-yl]-3-methylbenzoic acid]"
